Consider eight molecules from patent US20250136552A1, “ANTAGONISTS OF CAV 2.3” (LARIO THERAPEUTICS LIMITED, priority 2021, published 2025).

The target of assay [1] is T1, Cav2.3 (Homo sapiens, UniProt Q15878). The experiment in a line: Human Cav2.3 channel calcium-influx assay. It counts as cell-based. The conditions noted are these: HEK-293 T-Rex/Kir2.1 cells with inducible Cav2.3e-β4-α2δ1; Fluo8 fluorescence; 8-point dose response from 30 μM; no pluronic acid; read-out: Cav2.3 (pIC50) (converted). As to the method:
HEK-293 T-Rex cells were transfected with pcDNA3.1-Kir2.1 to generate a stable cell line. After antibiotic selection, the obtained stable pools were analysed using FLIPR^TETRA(membrane potential assay), and a limiting dilution was performed and a HEK-293 T-Rex/Kir2.1 clone was selected. The clone was transfected with pcDNA3.1-Cav2.3e and pBud-Cav-β4-α2δ1 to generate a stable cell line where the Cav2.3e expression is inducible. After antibiotic selection, functional clone pool analysis and two successive limiting dilutions, the final clone underwent a qPCR analysis and a biophysical and pharmacological validation using patch-clamp.
A compound plate, containing 10 test compounds in eight-points dose response with n=4, was prepared. Test compounds dose response curves were prepared in automated fashion in 100% DMSO at CyBio Felix and starting from a stock solution in 100% DMSO; a defined volume was serially moved into destination wells pre-filled with the desired DMSO volume; stock solution concentration volumes were dependent on the final compounds concentrations to be tested and the final DMSO content used in the assay. For the assay test compounds dose response curves ranged from 30 μM and half log dilution with 0.3% final DMSO. In order to obtain the 8-points dose response curve all the concentrations were created by starting from a 10 mM DMSO stock solution and then moving 9.5 μL into a destination well pre-filled with 20.5 μL of 100% DMSO and repeating this step seven times. This initial step was done into 96 MTP plates, 10 compounds/plate. One 384 MTP was then reformatted to contain all the 10 compounds at 8 concentrations, quadruplicate data points. This so obtained 384 MTP compound plate served as source plate in a “mother to child” process with a CyBi®-Well dispenser in which 0.7 μL of compounds were moved into a destination plate pre-filled with 57.6 μL of Tyrode's buffer 0 mM K^+, thus obtaining 4× concentrated compounds solution. In columns 1-2 and 23-24 the control wells were added. Both “source” compound plate and “destination” compound plate were barcoded and a relationship between the two plates was thus generated.
The day before the experiment, cells were detached by gentle wash with DPBS, followed by 5 min incubation at 37° C. with Trypsin solution. Detached cells were diluted with OptiMEM+Doxycycline at 0.2 μg/mL, counted and plated in Poly-D-Lysine coated black/clear bottom (15.000 c/well in 20 μl/well) by the use of a MATRIX WellMate dispenser. Plates were placed into a humidified incubator at 37° C. with 5% CO2 until the experimental day. 24 h after seeding 10 μL/well of 1.5× Fluo8 NW dye solution prepared in Tyrode's buffer 0 mM K^+ were added on top of the seeding medium. Cell plates were incubated for 40-60 min at RT in the dark. We then Injected off-line 10 μL/well of test compounds and controls 4× concentrated in Tyrode's Buffer 0 mM K+ with the CyBi®-Well instrument. Cell plates were incubated 3 minutes at RT. Finally, we injected 20 μL/well of 3× concentrated activator solution (K20-Na130-Ca2 buffer: 20 mM KCl, 130 mM NaCl, 2 mM CaCl2, 10 mM HEPES, 10 mM Glucose, final concentrations, prepared starting from “K0-Na150-Ca2” and “K150-Na0-Ca2” buffers) at FDSS7000EX instrument and read emitted fluorescence for 130 seconds.
Data analysis was performed with Genedata Screener® software and reported compounds activity as % effect in relation to the normalization standards. The Kinetic Response Value (KRV) is calculated as follows:
KRV=Maximal fluorescence recorded from second 5 to second 130 minus baseline fluorescence, computed as average from second 1 to second 2, of the kinetic trace. The KRV was normalized versus Neutral Controls and Inhibitor Controls in order to obtain the Activity[%] for each well. […] Therefore, the compound activity values were scaled (based on the two references) to a common range (two-point normalization). […]
Target sequence in this assay (Q15878 1-2270 isoform Q15878-3): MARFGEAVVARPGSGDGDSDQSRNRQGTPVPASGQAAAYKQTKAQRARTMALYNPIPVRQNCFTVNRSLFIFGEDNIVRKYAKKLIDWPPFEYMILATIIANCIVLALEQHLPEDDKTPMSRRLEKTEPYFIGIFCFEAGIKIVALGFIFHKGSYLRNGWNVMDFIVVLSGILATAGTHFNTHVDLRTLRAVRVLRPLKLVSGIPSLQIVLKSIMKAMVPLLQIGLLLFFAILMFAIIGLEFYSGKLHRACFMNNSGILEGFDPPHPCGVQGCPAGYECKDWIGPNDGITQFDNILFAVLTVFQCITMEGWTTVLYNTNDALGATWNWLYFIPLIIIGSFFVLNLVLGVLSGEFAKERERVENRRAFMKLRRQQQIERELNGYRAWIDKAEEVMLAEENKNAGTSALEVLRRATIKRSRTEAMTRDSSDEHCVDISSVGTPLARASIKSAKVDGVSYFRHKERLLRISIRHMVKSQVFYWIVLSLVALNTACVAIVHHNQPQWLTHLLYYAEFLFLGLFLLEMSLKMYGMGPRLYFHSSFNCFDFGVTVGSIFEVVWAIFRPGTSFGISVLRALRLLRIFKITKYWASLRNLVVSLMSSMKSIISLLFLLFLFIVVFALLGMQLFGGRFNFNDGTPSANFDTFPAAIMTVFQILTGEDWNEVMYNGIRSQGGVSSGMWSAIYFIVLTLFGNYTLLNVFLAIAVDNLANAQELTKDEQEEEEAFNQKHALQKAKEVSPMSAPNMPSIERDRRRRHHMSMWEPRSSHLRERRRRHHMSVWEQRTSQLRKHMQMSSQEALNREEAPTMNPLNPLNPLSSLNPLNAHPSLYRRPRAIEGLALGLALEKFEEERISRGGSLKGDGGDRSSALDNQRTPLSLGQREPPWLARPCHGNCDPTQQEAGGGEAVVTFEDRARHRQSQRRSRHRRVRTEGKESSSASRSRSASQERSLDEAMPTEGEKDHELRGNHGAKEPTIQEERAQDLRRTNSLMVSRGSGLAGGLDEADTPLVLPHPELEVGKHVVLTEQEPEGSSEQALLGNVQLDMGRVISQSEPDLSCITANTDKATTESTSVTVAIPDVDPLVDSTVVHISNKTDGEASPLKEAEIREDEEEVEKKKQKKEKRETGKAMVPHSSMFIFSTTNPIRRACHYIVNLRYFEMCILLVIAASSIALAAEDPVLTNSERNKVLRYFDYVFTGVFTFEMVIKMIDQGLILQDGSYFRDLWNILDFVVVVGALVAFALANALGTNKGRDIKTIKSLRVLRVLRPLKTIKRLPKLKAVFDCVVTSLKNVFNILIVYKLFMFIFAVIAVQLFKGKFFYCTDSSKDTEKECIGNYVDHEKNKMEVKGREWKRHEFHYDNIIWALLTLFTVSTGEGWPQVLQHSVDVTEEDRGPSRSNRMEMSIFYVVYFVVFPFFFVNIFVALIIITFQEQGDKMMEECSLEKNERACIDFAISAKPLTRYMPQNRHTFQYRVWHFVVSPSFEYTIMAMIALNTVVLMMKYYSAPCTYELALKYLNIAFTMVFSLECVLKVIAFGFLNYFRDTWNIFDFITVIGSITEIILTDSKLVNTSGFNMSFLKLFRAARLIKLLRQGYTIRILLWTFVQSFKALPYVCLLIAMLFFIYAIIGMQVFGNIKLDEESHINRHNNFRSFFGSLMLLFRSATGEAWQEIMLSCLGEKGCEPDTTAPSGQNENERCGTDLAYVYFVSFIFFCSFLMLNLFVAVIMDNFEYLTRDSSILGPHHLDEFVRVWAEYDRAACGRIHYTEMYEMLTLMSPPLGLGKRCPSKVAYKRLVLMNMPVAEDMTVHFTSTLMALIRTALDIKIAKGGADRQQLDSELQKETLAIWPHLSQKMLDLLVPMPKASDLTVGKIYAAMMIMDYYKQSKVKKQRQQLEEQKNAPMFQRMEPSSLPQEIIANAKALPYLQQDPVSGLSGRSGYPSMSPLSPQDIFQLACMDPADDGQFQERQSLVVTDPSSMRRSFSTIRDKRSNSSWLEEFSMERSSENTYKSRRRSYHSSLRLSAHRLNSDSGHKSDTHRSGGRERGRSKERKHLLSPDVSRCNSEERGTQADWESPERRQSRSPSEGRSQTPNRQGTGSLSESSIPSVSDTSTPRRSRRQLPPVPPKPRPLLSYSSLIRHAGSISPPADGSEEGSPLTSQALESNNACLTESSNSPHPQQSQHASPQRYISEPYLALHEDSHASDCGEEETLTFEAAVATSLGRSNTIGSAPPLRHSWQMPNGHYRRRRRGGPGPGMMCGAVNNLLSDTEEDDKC

Assay [2] deals with Cav2.3 dependent current in HEK-293 T-Rex/Kir2.1/Cav2.3e-β4-α2δ1 cells (Homo sapiens, UniProt Q15878). Briefly: Whole-cell patch clamp assay (QPatch 16X). Type of assay: cell-based. The settings on record: whole-cell voltage clamp, room temperature, inward current density; mean ± S.E; read-out: Cav2.3 (pIC50) (converted). As to the method:
HEK-293 T-Rex/Kir2.1/Cav2.3e-β4-α2δ1 cells were seeded 96 hours before experiment and doxycycline at 0.2 μg/mL was added 24 hours before experiment. Just before the experiments cells were washed twice with D-PBS w/o Ca2+/Mg2+ and gently detached from the flask with Detachin. Cells were then re-suspended in the suspension solution (25 mL EX-CELL ACF CHO medium; 0.25 mL of 100× Penicillin/Streptomycin) and placed on the Automated Patch-clamp platform (QPatch 16X).
Standard whole-cell voltage clamp experiments were performed at room temperature using the single hole technology and the following intracellular and extracellular solutions (ICS and ECS, respectively) were used. ICS (mM): CsF 60, CsCl 50, NaCl 10, EGTA 20, BAPTA 5, HEPES 10, NaGTP 0.3, MgATP 5 (pH 7.2; ECS (mM): NMDG-Cl 120, BaCl2 20, HEPES 10, EGTA 7 (pH 7.4). After establishment of the seal and the passage in the whole-cell configuration, the Cav2.3 dependent current was evoked by challenging the cells with the following voltage protocol: the plasma membrane was held at −80 mV then a 50 ms-long depolarizing pulse at 0 mV, followed by a 50 ms-long hyperpolarizing pulse at −100 mV were applied and finally the plasma membrane was held back to −80 mV. This voltage protocol was applied every 10 seconds. Cav2.3 dependent current was first measured in control condition (vehicle, 0.1% DMSO), in the presence of increasing concentration of the compound under investigation and finally SNX 482 was added to fully block any R-type Cav2.3 dependent current.
For data collection, the Sophion proprietary software was used while the analysis was performed off-line using Excel and GraphPad Prism. The inward current (Area Under Curve) measured during each depolarizing pulse was normalized to cell membrane capacitance (Cm) to obtain the average inward current density in each condition (control, compound under investigation and SNX 482). Then, the inhibitory effect of the compound under investigation was evaluated as % of the remaining inward current, normalized to the internal control. […] All data were expressed as mean±S.E

The target of assay [3] is T1, Cav2.3. The conditions noted are these: read-out: IC50 against Cav2.3; cited from earlier work.
Target sequence in this assay (Q15878 whole entry): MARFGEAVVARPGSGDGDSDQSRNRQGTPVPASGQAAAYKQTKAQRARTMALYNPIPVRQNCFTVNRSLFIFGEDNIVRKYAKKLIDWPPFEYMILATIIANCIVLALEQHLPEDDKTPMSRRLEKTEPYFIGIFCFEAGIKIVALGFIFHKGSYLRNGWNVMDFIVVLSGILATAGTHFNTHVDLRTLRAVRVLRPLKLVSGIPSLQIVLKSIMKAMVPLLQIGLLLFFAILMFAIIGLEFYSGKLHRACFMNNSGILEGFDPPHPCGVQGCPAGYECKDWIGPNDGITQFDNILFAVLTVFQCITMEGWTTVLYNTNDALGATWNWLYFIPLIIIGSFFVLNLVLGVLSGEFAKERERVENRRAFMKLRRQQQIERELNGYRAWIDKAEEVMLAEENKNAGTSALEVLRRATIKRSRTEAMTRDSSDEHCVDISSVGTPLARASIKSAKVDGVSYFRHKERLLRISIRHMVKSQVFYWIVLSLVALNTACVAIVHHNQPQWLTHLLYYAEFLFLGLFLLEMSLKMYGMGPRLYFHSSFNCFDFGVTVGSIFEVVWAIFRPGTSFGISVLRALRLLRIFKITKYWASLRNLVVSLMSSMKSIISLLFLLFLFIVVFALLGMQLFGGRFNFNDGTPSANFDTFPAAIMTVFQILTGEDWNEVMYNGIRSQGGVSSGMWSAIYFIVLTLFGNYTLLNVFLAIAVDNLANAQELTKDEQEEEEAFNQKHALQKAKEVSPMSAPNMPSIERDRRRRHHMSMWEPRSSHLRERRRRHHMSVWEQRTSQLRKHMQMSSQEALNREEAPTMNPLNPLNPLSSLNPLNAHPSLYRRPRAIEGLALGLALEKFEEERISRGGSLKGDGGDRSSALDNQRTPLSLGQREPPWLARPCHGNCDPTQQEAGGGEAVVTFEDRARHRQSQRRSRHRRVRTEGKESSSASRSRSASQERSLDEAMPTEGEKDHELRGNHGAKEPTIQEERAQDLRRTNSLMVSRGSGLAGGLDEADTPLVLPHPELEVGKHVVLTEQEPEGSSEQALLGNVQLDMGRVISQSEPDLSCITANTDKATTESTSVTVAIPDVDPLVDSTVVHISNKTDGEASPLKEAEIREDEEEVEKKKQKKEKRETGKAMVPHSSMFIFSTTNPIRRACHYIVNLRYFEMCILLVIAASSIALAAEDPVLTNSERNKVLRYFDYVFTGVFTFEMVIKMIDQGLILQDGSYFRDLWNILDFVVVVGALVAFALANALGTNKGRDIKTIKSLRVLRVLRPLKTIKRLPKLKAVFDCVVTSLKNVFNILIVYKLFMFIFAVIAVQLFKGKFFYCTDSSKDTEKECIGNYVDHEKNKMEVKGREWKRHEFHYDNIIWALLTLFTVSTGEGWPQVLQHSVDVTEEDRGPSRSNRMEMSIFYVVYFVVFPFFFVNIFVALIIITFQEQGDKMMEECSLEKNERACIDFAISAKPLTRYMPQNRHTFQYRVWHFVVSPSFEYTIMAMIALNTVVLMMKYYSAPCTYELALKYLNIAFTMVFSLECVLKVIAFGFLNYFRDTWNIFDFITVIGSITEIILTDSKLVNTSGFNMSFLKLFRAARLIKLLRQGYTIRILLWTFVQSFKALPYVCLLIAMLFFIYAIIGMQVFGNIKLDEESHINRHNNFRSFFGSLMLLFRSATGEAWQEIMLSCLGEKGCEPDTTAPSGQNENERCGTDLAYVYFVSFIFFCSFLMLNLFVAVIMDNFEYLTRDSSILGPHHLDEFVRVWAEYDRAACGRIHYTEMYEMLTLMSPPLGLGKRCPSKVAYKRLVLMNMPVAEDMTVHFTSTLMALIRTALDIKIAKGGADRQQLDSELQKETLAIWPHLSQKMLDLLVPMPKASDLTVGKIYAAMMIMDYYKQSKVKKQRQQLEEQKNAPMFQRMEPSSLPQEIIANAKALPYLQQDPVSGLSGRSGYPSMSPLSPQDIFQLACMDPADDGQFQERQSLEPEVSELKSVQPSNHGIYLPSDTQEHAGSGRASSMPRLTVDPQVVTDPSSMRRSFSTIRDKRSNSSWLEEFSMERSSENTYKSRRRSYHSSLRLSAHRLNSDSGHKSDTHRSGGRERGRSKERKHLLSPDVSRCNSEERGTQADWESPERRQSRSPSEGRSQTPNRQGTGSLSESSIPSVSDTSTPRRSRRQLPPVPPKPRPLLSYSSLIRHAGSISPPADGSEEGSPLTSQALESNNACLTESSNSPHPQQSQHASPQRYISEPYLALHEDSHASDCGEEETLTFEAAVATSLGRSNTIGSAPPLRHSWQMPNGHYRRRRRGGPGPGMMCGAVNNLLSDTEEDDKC

Where two headings read alike, the source gives them in different places.

Sequence of Cav2.3 dependent current in HEK-293 T-Rex/Kir2.1/Cav2.3e-β4-α2δ1 cells (Q15878 1-2270 isoform Q15878-3): as the sequence (Q15878 1-2270 isoform Q15878-3) above

Consider `CCN([C@@H](C)c1ccccc1)S(=O)(=O)c1ccc2c(c1)CN(C(=O)C1CC1)CC2` [Example 14, (S)-2-(cyclopropanecarbonyl)-N-ethyl-N-(1-phenylethyl)-1,2,3,4-tetrahydroisoquinoline-7-sulfonamide], for which the IC50 on Cav2.3 [1] is 0.724 µM; in assay [2], 1.12 µM.

For `CC(C)C(=O)N1CCc2ccc(S(=O)(=O)N(C)[C@H](c3ccc(F)cc3)C(F)(F)F)cc2C1` [Example 9, (R)-2-isobutyryl-N-methyl-N-(2,2,2-trifluoro-1-(4-fluorophenyl)ethyl)-1,2,3,4-tetrahydroisoquinoline-7-sulfonamide], the IC50 on Cav2.3 [1] is 0.676 µM; in assay [2], 0.525 µM. With “SNX-482 (GVDKAGCRYMFGGCSVNDDCCPRLGCHSLFSYCAWDLTFSD; UniProt P56854 1-41, looked up)”, the IC50 with Cav2.3 [3] is 0.015 to 0.03 µM. For the molecule `CCN([C@@H](C)c1ccc(F)cc1)S(=O)(=O)c1ccc2c(c1)CN(C(=O)C(C)C)CC2` [Example 12, (S)-N-ethyl-N-(1-(4-fluorophenyl)ethyl)-2-isobutyryl-1,2,3,4-tetrahydroisoquinoline-7-sulfonamide], the IC50 was 0.537 µM at Cav2.3 [1] and 0.0933 µM in assay [2]. In the same order, the values of `CC(C)C(=O)N1CCc2ccc(S(=O)(=O)N(CCF)C(c3ccc(F)cc3)C(F)(F)F)cc2C1` (stereo not drawn) [Example 49, N-(2-fluoroethyl)-2-isobutyryl-N-(2,2,2-trifluoro-1-(4-fluorophenyl)ethyl)-1,2,3,4-tetrahydroisoquinoline-7-sulfonamide] are 0.513 µM and 0.204 µM.

As for `CCN([C@@H](C)c1ccc(C(F)(F)F)cc1)S(=O)(=O)c1ccc2c(c1)CN(C(=O)C(C)C)CC2` [Example 1, (S)-N-ethyl-2-isobutyryl-N-(1-(4-(trifluoromethyl)phenyl)ethyl)-1,2,3,4-tetrahydroisoquinoline-7-sulfonamide], the results for the IC50 (on Cav2.3 [1]; in assay [2]) were 0.661 µM and 0.251 µM, respectively. For the molecule `CCN([C@H](c1ccc(F)cc1)C(F)(F)F)S(=O)(=O)c1ccc2c(c1)CN(C(=O)C(C)C)CC2` (stereo in doubt) [Example 6, N-ethyl-2-isobutyryl-N-(2,2,2-trifluoro-1-(4-fluorophenyl)ethyl)-1,2,3,4-tetrahydroisoquinoline-7-sulfonamide], the figures for the IC50 (at Cav2.3 [1]; in assay [2]) were 0.398 µM and 0.0871 µM, respectively. In the case of `CCN([C@@H](C)c1ccc(C(F)(F)F)cc1)S(=O)(=O)c1ccc2c(c1)CCN(C(=O)C(C)C)C2` [Example 20, (S)-N-ethyl-2-isobutyryl-N-(1-(4-(trifluoromethyl)phenyl)ethyl)-1,2,3,4-tetrahydroisoquinoline-6-sulfonamide], the IC50 at Cav2.3 [1] was 1.58 µM; in assay [2], 0.372 µM.
